From BigSolDB 2.1

COc1ccc2cccc(CCNC(C)=O)c2c1
solubility (mole fraction)
Details	in ethanol	in ethyl acetate	in isopropanol	in methanol	in n-butanol	in n-butyl acetate	in n-pentyl acetate	in n-propanol	in n-propyl acetate	in water
278.15 K	0.0109	0.00662	0.00499	0.0192	0.00986	0.00323	0.00181	0.00905	0.00406	1.8e-05
283.15 K	0.0169	0.00934	0.0107	0.0264	0.0147	0.00474	0.00281	0.016	0.00625	2.9e-05
288.15 K	0.0235	0.0131	0.0186	0.0347	0.0214	0.00661	0.00432	0.0201	0.00886	4.59e-05
293.15 K	0.0319	0.0175	0.0256	0.0442	0.0279	0.00944	0.00601	0.0261	0.0127	6.85e-05
298.15 K	0.0425	0.0263	0.032	0.0584	0.04	0.0134	0.00884	0.0402	0.018	0.000119
303.15 K	0.0542	0.0342	0.039	0.0752	0.05	0.0207	0.0156	0.0484	0.0255	0.000161
308.15 K	0.0819	0.0454	0.053	0.101	0.06	0.0261	0.021	0.0694	0.0364	0.000248
313.15 K	0.109	0.0598	0.0686	0.147	0.0802	0.038	0.0294	0.0892	0.0466	0.00038
318.15 K	0.144	0.0754	0.0893	0.18	0.107	0.0507	0.0397	0.115	0.0639	0.000551
